# In patent US20250034167A1, “HETEROCYCLIC COMPOUNDS AND METHODS OF USE” (AMGEN INC., priority 2021, published 2025):
# Key:
# [1] = test system: Phosphorylation of ERK1/2 in AsPC-1 cells; experiment: Phospho-ERK1/2 MSD Assay; format: cell-based; conditions: Homo sapiens, ASPC1, 2 h, read-out: 2 h p-ERK (AsPC-1 cells), IC50, AsPC-1 cells, 2 h compound treatment
# Description: Sixteen hours prior to compound treatment, AsPC-1 cells were seeded in 96-well cell culture plates at a density of 25,000 cells/well and incubated at 37° C., 5% CO2. A compound dose-response titration was diluted in growth media, added to appropriate wells of a cell culture plate, and then incubated at 37° C., 5% CO2 for 2 hours.
# [2] = biological target: His-tagged KRAS G12D protein (Homo sapiens, UniProt P01116, G12D); experiment: biochemical
# Sequence of His-tagged KRAS G12D protein (P01116 1-188 isoform P01116-2 G12D): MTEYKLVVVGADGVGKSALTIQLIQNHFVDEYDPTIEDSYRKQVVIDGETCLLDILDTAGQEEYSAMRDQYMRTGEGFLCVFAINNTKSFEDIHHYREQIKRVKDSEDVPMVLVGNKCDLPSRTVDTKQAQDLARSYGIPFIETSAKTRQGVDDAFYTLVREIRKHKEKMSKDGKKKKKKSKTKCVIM
SMILES,IC50 [1] [nM],IC50 [2] [nM]
"CCc1c(F)ccc2cc(O)cc(-c3ncc4c(N5CCC(O)C(F)(F)CC5)nc(OC[C@@]56CCCN5C[C@H](F)C6)nc4c3F)c12 (stereo partly drawn) [Example 120, 1-(7-(8-Ethyl-7-fluoro-3-hydroxynaphthalen-1-yl)-8-fluoro-2-(((2R,7aS)-2-fluorotetrahydro-1H-pyrrolizin-7a(5H)-yl)methoxy)pyrido[4,3-d]pyrimidin-4-yl)-5,5-difluoroazepan-4-ol]",222,4
"CCc1c(F)ccc2cc(O)cc(-c3ncc4c(N5CCCC[C@@H](NC(=O)C(F)F)C5)nc(OC[C@@]56CCCN5C[C@H](F)C6)nc4c3F)c12 [Example 132, N-((R)-1-(7-(8-Ethyl-7-fluoro-3-hydroxynaphthalen-1-yl)-8-fluoro-2-(((2R,7aS)-2-fluorotetrahydro-1H-pyrrolizin-7a(5H)-yl)methoxy)pyrido[4,3-d]pyrimidin-4-yl)azepan-3-yl)-2,2-difluoroacetamide]",119,1
"CCc1c(F)ccc2cc(O)cc(-c3ncc4c(N5CCCC[C@@H](NC(C)=O)C5)nc(OC[C@@]56CCCN5C[C@H](F)C6)nc4c3F)c12 [Example 133, N-((R)-1-(7-(8-Ethyl-7-fluoro-3-hydroxynaphthalen-1-yl)-8-fluoro-2-(((2R,7aS)-2-fluorotetrahydro-1H-pyrrolizin-7a(5H)-yl)methoxy)pyrido[4,3-d]pyrimidin-4-yl)azepan-3-yl)acetamide]",661,2
"CCc1c(F)ccc2cc(O)cc(-c3ncc4c(N5C[C@H](N)CC(F)(F)C5)nc(OC[C@@]56CCCN5C[C@H](F)C6)nc4c3F)c12 [Example 140, 4-(4-((R)-5-Amino-3,3-difluoropiperidin-1-yl)-8-fluoro-2-(((2R,7aS)-2-fluorotetrahydro-1H-pyrrolizin-7a(5H)-yl)methoxy)pyrido[4,3-d]pyrimidin-7-yl)-5-ethyl-6-fluoronaphthalen-2-ol]",81,3
"CCc1c(F)ccc2cc(O)cc(-c3ncc4c(N5CCCC(N)CC5)nc(OC[C@@]56CCCN5C[C@H](F)C6)nc4c3F)c12 (stereo partly drawn) [Example 143, 4-(4-(4-Aminoazepan-1-yl)-8-fluoro-2-(((2R,7aS)-2-fluorotetrahydro-1H-pyrrolizin-7a(5H)-yl)methoxy)pyrido[4,3-d]pyrimidin-7-yl)-5-ethyl-6-fluoronaphthalen-2-ol]",> 10000,62
"CCc1c(F)ccc2cc(O)cc(-c3ncc4c(N5CC6CCC(C5)C(C#N)C6)nc(OC[C@@]56CCCN5C[C@H](F)C6)nc4c3F)c12 (stereo partly drawn) [Example 147, 3-(7-(8-Ethyl-7-fluoro-3-hydroxynaphthalen-1-yl)-8-fluoro-2-(((2R,7aS)-2-fluorotetrahydro-1H-pyrrolizin-7a(5H)-yl)methoxy)pyrido[4,3-d]pyrimidin-4-yl)-3-azabicyclo[3.2.2]nonane-6-carbonitrile]",714,15
"CCc1c(F)ccc2cc(O)cc(-c3ncc4c(N5CCCC(F)(F)CC5)nc(OC[C@@]56CCCN5C[C@H](F)C6)nc4c3F)c12 [Example 149, 4-(4-(4,4-Difluoroazepan-1-yl)-8-fluoro-2-(((2R,7aS)-2-fluorotetrahydro-1H-pyrrolizin-7a(5H)-yl)methoxy)pyrido[4,3-d]pyrimidin-7-yl)-5-ethyl-6-fluoronaphthalen-2-ol]",702,12
"CCc1c(F)ccc2cc(O)cc(-c3ncc4c(N5CCC(=O)C(F)(F)CC5)nc(OC[C@@]56CCCN5C[C@H](F)C6)nc4c3F)c12 [Example 150, 1-(7-(8-Ethyl-7-fluoro-3-hydroxy-naphthalen-1-yl)-8-fluoro-2-(((2R,7aS)-2-fluorotetrahydro-1H-pyrrolizin-7a(5H)-yl)methoxy)pyrido[4,3-d]pyrimidin-4-yl)-5,5-difluoroazepan-4-one]",1430,3
"CCc1c(F)ccc2cc(O)cc(-c3ncc4c(N5CCC(=O)C(F)(F)C5)nc(OC[C@@]56CCCN5C[C@H](F)C6)nc4c3F)c12 [Example 152, 1-(7-(8-Ethyl-7-fluoro-3-hydroxy-naphthalen-1-yl)-8-fluoro-2-(((2R,7aS)-2-fluorotetrahydro-1H-pyrrolizin-7a(5H)-yl)methoxy)pyrido[4,3-d]pyrimidin-4-yl)-3,3-difluoropiperidin-4-one]",2670,4
"CCc1c(F)ccc2cc(O)cc(-c3ncc4c(N5CCCCC(S(N)(=O)=O)C5)nc(OC[C@@]56CCCN5C[C@H](F)C6)nc4c3F)c12 (stereo partly drawn) [Example 158, 1-(7-(8-Ethyl-7-fluoro-3-hydroxy-naphthalen-1-yl)-8-fluoro-2-(((2R,7aS)-2-fluorotetrahydro-1H-pyrrolizin-7a(5H)-yl)methoxy)pyrido[4,3-d]pyrimidin-4-yl)azepane-3-sulfonamide]",1420,2
"CCc1c(F)ccc2cc(O)cc(-c3ncc4c(N5CCCC(O)(C(N)=O)C5)nc(OC[C@@]56CCCN5C[C@H](F)C6)nc4c3F)c12 (stereo partly drawn) [Example 159, 1-(7-(8-Ethyl-7-fluoro-3-hydroxy-naphthalen-1-yl)-8-fluoro-2-(((2R,7aS)-2-fluorotetrahydro-1H-pyrrolizin-7a(5H)-yl)methoxy)pyrido[4,3-d]pyrimidin-4-yl)-3-hydroxypiperidine-3-carboxamide]",3080,2

# Other lines, results leading:
IC50 [1] [nM],IC50 [2] [nM],SMILES
1900,2,"CCc1c(F)ccc2cc(O)cc(-c3ncc4c(N5C[C@H](O)C[C@@H](O)C5)nc(OC[C@@]56CCCN5C[C@H](F)C6)nc4c3F)c12 [Example 102, (3R,5R)-1-(7-(8-Ethyl-7-fluoro-3-hydroxynaphthalen-1-yl)-8-fluoro-2-(((2R,7aS)-2-fluorotetrahydro-1H-pyrrolizin-7a(5H)-yl)methoxy)pyrido[4,3-d]pyrimidin-4-yl)piperidine-3,5-diol]"
939,9,"CCc1c(F)ccc2cc(O)cc(-c3ncc4c(N5CC6CCC(C6)C5)nc(OC[C@@]56CCCN5C[C@H](F)C6)nc4c3F)c12 [Example 105, 4-(4-(3-Azabicyclo[3.2.1]octan-3-yl)-8-fluoro-2-(((2R,7aS)-2-fluorotetrahydro-1H-pyrrolizin-7a(5H)-yl)methoxy)pyrido[4,3-d]pyrimidin-7-yl)-5-ethyl-6-fluoronaphthalen-2-ol]"
> 10000,9,"CCc1c(F)ccc2cc(O)cc(-c3ncc4c(N5C[C@H](O)[C@@H](O)C5)nc(OC[C@@]56CCCN5C[C@H](F)C6)nc4c3F)c12 [Example 117, (3S,4S)-1-(7-(8-Ethyl-7-fluoro-3-hydroxynaphthalen-1-yl)-8-fluoro-2-(((2R,7aS)-2-fluorotetrahydro-1H-pyrrolizin-7a(5H)-yl)methoxy)pyrido[4,3-d]pyrimidin-4-yl)pyrrolidine-3,4-diol]"
105,3,"CCc1c(F)ccc2cc(O)cc(-c3ncc4c(N5CC(O)CC(F)(F)C5)nc(OC[C@@]56CCCN5C[C@H](F)C6)nc4c3F)c12 (stereo partly drawn) [Example 118, 1-(7-(8-Ethyl-7-fluoro-3-hydroxynaphthalen-1-yl)-8-fluoro-2-(((2R,7aS)-2-fluorotetrahydro-1H-pyrrolizin-7a(5H)-yl)methoxy)pyrido[4,3-d]pyrimidin-4-yl)-5,5-difluoropiperidin-3-ol]"
3340,37,"CCc1c(F)ccc2cc(O)cc(-c3ncc4c(N5CCC[C@@H](C(=O)OC)C5)nc(OC[C@@]56CCCN5C[C@H](F)C6)nc4c3F)c12 [Example 126, Methyl (R)-1-(7-(8-ethyl-7-fluoro-3-hydroxynaphthalen-1-yl)-8-fluoro-2-(((2R,7aS)-2-fluorotetrahydro-1H-pyrrolizin-7a(5H)-yl)methoxy)pyrido[4,3-d]pyrimidin-4-yl)piperidine-3-carboxylate]"
64,1,"CCc1c(F)ccc2cc(O)cc(-c3ncc4c(N5CCCC[C@@H](O)C5)nc(OC[C@@]56CCCN5C[C@H](F)C6)nc4c3F)c12 [Example 129, (R)-1-(7-(8-Ethyl-7-fluoro-3-hydroxynaphthalen-1-yl)-8-fluoro-2-(((2R,7aS)-2-fluorotetrahydro-1H-pyrrolizin-7a(5H)-yl)methoxy)pyrido[4,3-d]pyrimidin-4-yl)azepan-3-ol]"
81,1,"CCc1c(F)ccc2cc(O)cc(-c3ncc4c(N5CCC=CC(O)C5)nc(OC[C@@]56CCCN5C[C@H](F)C6)nc4c3F)c12 (stereo partly drawn) [Example 135, 1-(7-(8-Ethyl-7-fluoro-3-hydroxynaphthalen-1-yl)-8-fluoro-2-(((2R,7aS)-2-fluorotetrahydro-1H-pyrrolizin-7a(5H)-yl)methoxy)pyrido[4,3-d]pyrimidin-4-yl)-2,3,6,7-tetrahydro-1H-azepin-3-ol]"
> 10000,16,"CCc1c(F)ccc2cc(O)cc(-c3ncc4c(N5CCC[C@@H](C(=O)O)C5)nc(OC[C@@]56CCCN5C[C@H](F)C6)nc4c3F)c12 [Example 138, (R)-1-(7-(8-Ethyl-7-fluoro-3-hydroxynaphthalen-1-yl)-8-fluoro-2-(((2R,7aS)-2-fluorotetrahydro-1H-pyrrolizin-7a(5H)-yl)methoxy)pyrido[4,3-d]pyrimidin-4-yl)piperidine-3-carboxylic acid]"
116,5,"CCc1c(F)ccc2cc(O)cc(-c3ncc4c(N5CCC=CCC5)nc(OC[C@@]56CCCN5C[C@H](F)C6)nc4c3F)c12 [Example 139, 5-Ethyl-6-fluoro-4-(8-fluoro-2-(((2R,7aS)-2-fluorotetrahydro-1H-pyrrolizin-7a(5H)-yl)methoxy)-4-(2,3,6,7-tetrahydro-1H-azepin-1-yl)pyrido[4,3-d]pyrimidin-7-yl)naphthalen-2-ol]"
198,4,"CCc1c(F)ccc2cc(O)cc(-c3ncc4c(N5CCCC(O)CC5)nc(OC[C@@]56CCCN5C[C@H](F)C6)nc4c3F)c12 (stereo partly drawn) [Example 141, 1-(7-(8-Ethyl-7-fluoro-3-hydroxynaphthalen-1-yl)-8-fluoro-2-(((2R,7aS)-2-fluorotetrahydro-1H-pyrrolizin-7a(5H)-yl)methoxy)pyrido[4,3-d]pyrimidin-4-yl)azepan-4-ol]"
